Earlier results on two substances are cited in patent publication EP0005248A2, “Tetrapeptidehydrazide derivatives and process for their preparation” (Takeda Chemical Industries, Ltd., priority 1978, dated 1979).

The conditions of the series: for analgesic action: intravenous administration.

With H=ryr -Gly-Gly-Phe-Met-OH, the analgesic action result was “do not have an analgesic action”. The morphinomimetic action result (directly administered by the intracerebral route) is on record as “display a morphinemimetic action”.

Take “β-Endorphin (YGGFMTSEKSQTPLVTLFKNAIIKNAYKKGE; Beta-endorphin; UniProt P01189 237-267, looked up)”: the analgesic action entry is “profound analgesic effects”.
